{"source": "paper PMC6478789", "about": "“A chemical toolbox for the study of bromodomains and epigenetic signaling” (Nature Communications, 2019)", "key": {"BRD4(1,2)": {"biological_target": "BRD4(1,2) (Homo sapiens, UniProt O60885)", "test": "BROMOscan ligand-binding assay"}, "CK2A1": {"biological_target": "T1, CK2A1 (Homo sapiens, UniProt P68400)", "T1 construct": "Recombinant protein domains (bromodomain or kinases) at a concentration of 2 μM", "T1 sequence (P68400 39-324 limits assumed)": "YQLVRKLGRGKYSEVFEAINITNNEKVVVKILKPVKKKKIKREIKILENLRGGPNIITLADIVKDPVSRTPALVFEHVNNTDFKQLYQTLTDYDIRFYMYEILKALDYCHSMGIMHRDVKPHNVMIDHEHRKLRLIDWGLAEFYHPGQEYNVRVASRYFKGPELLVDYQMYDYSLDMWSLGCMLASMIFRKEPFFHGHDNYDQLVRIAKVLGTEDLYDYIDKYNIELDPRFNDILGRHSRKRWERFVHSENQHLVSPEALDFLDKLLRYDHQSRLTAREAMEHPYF", "test": "Temperature shift assay (protein kinases)", "format": "binding", "conditions": "10 μM probe; average of three measurements", "protocol": "(§1) Temperature shift assays have been described by Fedorov et al.[46]. Recombinant protein domains (bromodomain or kinases) at a concentration of 2 μM in 10 mM HEPES, pH 7.5, and 500 mM NaCl were mixed with 10 μM of chemical probes. Temperature-dependent protein unfolding profiles were measured using a Real-Time PCR Mx3005p machine (Stratagene)."}, "CAMK1G": {"biological_target": "T2, CAMK1G (Homo sapiens, UniProt Q96NX5)", "T2 construct": "Recombinant protein domains (bromodomain or kinases) at a concentration of 2 μM", "T2 sequence (Q96NX5 23-277 limits assumed, species assumed)": "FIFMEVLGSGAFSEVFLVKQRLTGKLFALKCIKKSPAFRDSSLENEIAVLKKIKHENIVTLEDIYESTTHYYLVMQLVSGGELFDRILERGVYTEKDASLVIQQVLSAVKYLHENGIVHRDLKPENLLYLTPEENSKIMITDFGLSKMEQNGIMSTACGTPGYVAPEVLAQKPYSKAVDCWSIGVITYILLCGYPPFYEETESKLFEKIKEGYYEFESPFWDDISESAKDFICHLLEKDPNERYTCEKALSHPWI", "test": "Temperature shift assay (protein kinases)", "format": "binding", "conditions": "10 μM probe; average of three measurements", "protocol": "as §1"}, "RPS6KA1": {"tested_on": "RPS6KA1", "test": "Temperature shift assay (protein kinases)", "format": "binding", "conditions": "10 μM probe; average of three measurements", "protocol": "as §1"}, "DAPK3": {"biological_target": "T3, DAPK3 (Homo sapiens, UniProt O43293)", "T3 construct": "Recombinant protein domains (bromodomain or kinases) at a concentration of 2 μM", "T3 sequence (O43293 13-275 limits assumed, species assumed)": "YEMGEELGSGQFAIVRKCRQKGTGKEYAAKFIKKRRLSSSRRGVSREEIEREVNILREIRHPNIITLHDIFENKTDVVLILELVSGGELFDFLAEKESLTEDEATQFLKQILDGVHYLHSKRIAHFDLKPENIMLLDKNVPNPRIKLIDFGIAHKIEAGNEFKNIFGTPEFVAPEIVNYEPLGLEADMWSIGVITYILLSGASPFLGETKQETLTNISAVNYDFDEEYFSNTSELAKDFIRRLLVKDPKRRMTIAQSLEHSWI", "test": "Temperature shift assay (protein kinases)", "format": "binding", "conditions": "10 μM probe; average of three measurements", "protocol": "as §1"}, "AAK1": {"biological_target": "T4, AAK1 (Homo sapiens, UniProt Q2M2I8)", "T4 construct": "Recombinant protein domains (bromodomain or kinases) at a concentration of 2 μM", "T4 sequence (Q2M2I8 46-315 limits assumed, species assumed)": "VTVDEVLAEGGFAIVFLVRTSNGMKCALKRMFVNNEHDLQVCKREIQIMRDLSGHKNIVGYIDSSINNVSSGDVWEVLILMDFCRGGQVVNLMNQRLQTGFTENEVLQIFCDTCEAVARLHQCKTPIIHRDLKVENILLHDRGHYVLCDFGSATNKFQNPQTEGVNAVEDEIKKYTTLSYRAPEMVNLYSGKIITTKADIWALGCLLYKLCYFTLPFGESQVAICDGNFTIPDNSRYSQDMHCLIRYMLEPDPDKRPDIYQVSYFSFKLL", "test": "Temperature shift assay (protein kinases)", "format": "binding", "conditions": "10 μM probe; average of three measurements", "protocol": "as §1"}, "PIM1": {"biological_target": "T5, PIM1 (Homo sapiens, UniProt P11309)", "T5 construct": "Recombinant protein domains (bromodomain or kinases) at a concentration of 2 μM", "T5 sequence (P11309 38-290 limits assumed, species assumed)": "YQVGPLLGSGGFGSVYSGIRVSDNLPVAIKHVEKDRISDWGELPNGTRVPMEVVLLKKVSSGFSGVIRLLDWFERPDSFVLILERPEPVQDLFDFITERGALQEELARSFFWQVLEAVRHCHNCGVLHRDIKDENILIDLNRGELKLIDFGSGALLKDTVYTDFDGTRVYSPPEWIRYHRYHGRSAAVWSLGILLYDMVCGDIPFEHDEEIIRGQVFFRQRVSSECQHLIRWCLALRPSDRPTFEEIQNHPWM", "test": "Temperature shift assay (protein kinases)", "format": "binding", "conditions": "10 μM probe; average of three measurements", "protocol": "as §1"}, "CSNK1D": {"biological_target": "T6, CSNK1D (Homo sapiens, UniProt P48730)", "T6 construct": "Recombinant protein domains (bromodomain or kinases) at a concentration of 2 μM", "T6 sequence (P48730 9-277 limits assumed)": "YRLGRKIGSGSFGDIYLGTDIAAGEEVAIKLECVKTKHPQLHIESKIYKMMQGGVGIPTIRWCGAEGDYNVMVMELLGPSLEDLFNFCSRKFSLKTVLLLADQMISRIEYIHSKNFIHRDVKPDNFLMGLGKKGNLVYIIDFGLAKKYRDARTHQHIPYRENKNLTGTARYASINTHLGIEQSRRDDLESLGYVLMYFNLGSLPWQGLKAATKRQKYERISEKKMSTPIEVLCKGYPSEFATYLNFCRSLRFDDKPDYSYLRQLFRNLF", "test": "Temperature shift assay (protein kinases)", "format": "binding", "conditions": "10 μM probe; average of three measurements", "protocol": "as §1"}, "AURKB": {"biological_target": "T7, AURKB (Homo sapiens, UniProt Q96GD4)", "T7 construct": "Recombinant protein domains (bromodomain or kinases) at a concentration of 2 μM", "T7 sequence (Q96GD4 77-327 limits assumed, species assumed)": "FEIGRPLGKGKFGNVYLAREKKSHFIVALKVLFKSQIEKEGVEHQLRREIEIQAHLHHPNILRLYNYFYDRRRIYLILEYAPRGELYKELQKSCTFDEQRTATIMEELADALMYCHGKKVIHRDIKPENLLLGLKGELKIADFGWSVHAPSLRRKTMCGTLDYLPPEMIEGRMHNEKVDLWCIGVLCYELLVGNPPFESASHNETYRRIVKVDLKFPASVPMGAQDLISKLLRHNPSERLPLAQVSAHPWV", "test": "Temperature shift assay (protein kinases)", "format": "binding", "conditions": "10 μM probe; average of three measurements", "protocol": "as §1"}, "MAPK1": {"biological_target": "T8, MAPK1 (Homo sapiens, UniProt P28482)", "T8 construct": "Recombinant protein domains (bromodomain or kinases) at a concentration of 2 μM", "T8 sequence (P28482 25-313 limits assumed, species assumed)": "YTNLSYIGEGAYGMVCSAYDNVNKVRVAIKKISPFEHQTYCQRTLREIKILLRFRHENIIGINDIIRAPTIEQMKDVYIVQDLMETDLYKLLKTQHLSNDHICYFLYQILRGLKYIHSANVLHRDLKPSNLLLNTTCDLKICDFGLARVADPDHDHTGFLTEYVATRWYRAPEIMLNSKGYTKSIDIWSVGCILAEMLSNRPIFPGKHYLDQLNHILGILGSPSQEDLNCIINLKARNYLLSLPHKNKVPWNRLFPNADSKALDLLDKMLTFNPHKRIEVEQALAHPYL", "test": "Temperature shift assay (protein kinases)", "format": "binding", "conditions": "10 μM probe; average of three measurements", "protocol": "as §1"}, "TTK": {"biological_target": "T9, TTK (Homo sapiens, UniProt P33981)", "T9 construct": "Recombinant protein domains (bromodomain or kinases) at a concentration of 2 μM", "T9 sequence (P33981 525-791 limits assumed)": "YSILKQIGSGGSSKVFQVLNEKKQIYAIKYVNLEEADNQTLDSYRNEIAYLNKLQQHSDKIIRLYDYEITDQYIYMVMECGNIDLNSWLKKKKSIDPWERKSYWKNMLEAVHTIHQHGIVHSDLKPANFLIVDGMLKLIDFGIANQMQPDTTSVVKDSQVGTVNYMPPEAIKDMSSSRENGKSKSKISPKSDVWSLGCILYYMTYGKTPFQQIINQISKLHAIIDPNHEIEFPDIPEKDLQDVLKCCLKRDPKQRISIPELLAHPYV", "test": "Temperature shift assay (protein kinases)", "format": "binding", "conditions": "10 μM probe; average of three measurements", "protocol": "as §1"}, "MAPK8": {"biological_target": "T10, MAPK8 (Homo sapiens, UniProt P45983)", "T10 construct": "Recombinant protein domains (bromodomain or kinases) at a concentration of 2 μM", "T10 sequence (P45983 26-321 limits assumed, species assumed)": "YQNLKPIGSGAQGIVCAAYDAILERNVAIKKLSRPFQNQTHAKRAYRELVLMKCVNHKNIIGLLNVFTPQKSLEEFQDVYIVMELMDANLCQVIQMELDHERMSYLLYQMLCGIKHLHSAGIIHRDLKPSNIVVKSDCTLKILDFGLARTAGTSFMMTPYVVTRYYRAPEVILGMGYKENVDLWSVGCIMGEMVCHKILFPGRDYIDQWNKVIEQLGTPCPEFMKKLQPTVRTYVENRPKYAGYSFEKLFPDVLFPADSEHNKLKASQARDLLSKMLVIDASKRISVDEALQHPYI", "test": "Temperature shift assay (protein kinases)", "format": "binding", "conditions": "10 μM probe; average of three measurements", "protocol": "as §1"}, "CASK": {"biological_target": "T11, CASK (Homo sapiens, UniProt O14936)", "T11 construct": "Recombinant protein domains (bromodomain or kinases) at a concentration of 2 μM", "T11 sequence (O14936 12-276 limits assumed)": "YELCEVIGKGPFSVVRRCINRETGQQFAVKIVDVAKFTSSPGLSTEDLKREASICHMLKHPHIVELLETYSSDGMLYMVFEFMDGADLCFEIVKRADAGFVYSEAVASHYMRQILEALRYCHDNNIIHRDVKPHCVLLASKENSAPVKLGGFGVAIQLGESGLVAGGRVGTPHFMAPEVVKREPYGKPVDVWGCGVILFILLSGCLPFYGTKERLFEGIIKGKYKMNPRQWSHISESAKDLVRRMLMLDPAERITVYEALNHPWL", "test": "Temperature shift assay (protein kinases)", "format": "binding", "conditions": "10 μM probe; average of three measurements", "protocol": "as §1"}, "BMX": {"biological_target": "T12, BMX (Homo sapiens, UniProt P51813)", "T12 construct": "Recombinant protein domains (bromodomain or kinases) at a concentration of 2 μM", "T12 sequence (P51813 417-675 limits assumed, species assumed)": "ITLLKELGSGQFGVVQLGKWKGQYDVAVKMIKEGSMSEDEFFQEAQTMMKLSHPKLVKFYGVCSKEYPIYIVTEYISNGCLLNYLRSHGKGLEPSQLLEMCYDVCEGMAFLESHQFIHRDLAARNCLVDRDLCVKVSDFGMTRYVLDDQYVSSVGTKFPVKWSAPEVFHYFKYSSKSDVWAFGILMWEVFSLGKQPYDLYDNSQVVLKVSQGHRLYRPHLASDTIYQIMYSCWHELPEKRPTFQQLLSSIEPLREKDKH", "test": "Temperature shift assay (protein kinases)", "format": "binding", "conditions": "10 μM probe; average of three measurements", "protocol": "as §1"}, "WDR5": {"biological_target": "WDR5 (Homo sapiens, UniProt P61964)", "test": "Temperature shift assay (non-BRD reader domains)", "format": "binding", "conditions": "10µM compound", "protocol": "as §1\n(§2) Wu et al., Supplementary figures and tables 14\n(§3) Supplementary Table 3: Selectivity screening data (non-BRD reader domains):\n(§4) Temperature shift assay data of BRD probes screened against a diver se panel of methyl-lysine\n(§5) reader domains. Compounds were screened a concentration of 10 µM. Shown are temperature"}, "UHRF1": {"biological_target": "T13, UHRF1 (Homo sapiens, UniProt Q96T88)", "T13 sequence (Q96T88 126-285 limits assumed)": "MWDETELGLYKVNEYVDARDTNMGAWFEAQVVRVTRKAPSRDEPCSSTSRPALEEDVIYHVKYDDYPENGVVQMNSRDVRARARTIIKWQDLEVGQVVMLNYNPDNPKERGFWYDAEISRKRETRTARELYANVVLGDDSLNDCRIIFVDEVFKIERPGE", "test": "Temperature shift assay (non-BRD reader domains)", "format": "binding", "conditions": "10µM compound", "protocol": "as §1, §2, §3, §4, §5"}, "53BP1": {"biological_target": "53BP1 (Homo sapiens, UniProt Q12888)", "sequence (Q12888 1484-1603 limits assumed, species assumed)": "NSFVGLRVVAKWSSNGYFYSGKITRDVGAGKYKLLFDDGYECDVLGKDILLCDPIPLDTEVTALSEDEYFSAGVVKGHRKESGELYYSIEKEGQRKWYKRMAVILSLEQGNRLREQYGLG", "test": "Temperature shift assay (non-BRD reader domains)", "format": "binding", "conditions": "10µM compound", "protocol": "as §1, §2, §3, §4, §5"}, "RBBP1": {"tested_on": "RBBP1", "test": "Temperature shift assay (non-BRD reader domains)", "format": "binding", "conditions": "10µM compound", "protocol": "as §1, §2, §3, §4, §5"}, "SND1": {"biological_target": "T14, SND1 (Homo sapiens, UniProt Q7KZF4)", "T14 sequence (Q7KZF4 729-787 limits assumed)": "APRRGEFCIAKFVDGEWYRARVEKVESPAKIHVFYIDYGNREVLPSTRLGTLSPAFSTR", "test": "Temperature shift assay (non-BRD reader domains)", "format": "binding", "conditions": "10µM compound", "protocol": "as §1, §2, §3, §4, §5"}, "BRPF3": {"biological_target": "BRPF3 (Homo sapiens, UniProt Q9ULD4)", "sequence (Q9ULD4 1076-1159 limits assumed, species assumed)": "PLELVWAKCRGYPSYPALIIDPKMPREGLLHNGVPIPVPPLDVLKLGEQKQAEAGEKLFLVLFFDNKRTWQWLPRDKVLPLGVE", "test": "Temperature shift assay (non-BRD reader domains)", "format": "binding", "conditions": "10µM compound", "protocol": "as §1, §2, §3, §4, §5"}, "EED": {"biological_target": "EED (Homo sapiens, UniProt O75530)", "sequence (O75530 whole entry, species assumed, the tested form may be a part)": "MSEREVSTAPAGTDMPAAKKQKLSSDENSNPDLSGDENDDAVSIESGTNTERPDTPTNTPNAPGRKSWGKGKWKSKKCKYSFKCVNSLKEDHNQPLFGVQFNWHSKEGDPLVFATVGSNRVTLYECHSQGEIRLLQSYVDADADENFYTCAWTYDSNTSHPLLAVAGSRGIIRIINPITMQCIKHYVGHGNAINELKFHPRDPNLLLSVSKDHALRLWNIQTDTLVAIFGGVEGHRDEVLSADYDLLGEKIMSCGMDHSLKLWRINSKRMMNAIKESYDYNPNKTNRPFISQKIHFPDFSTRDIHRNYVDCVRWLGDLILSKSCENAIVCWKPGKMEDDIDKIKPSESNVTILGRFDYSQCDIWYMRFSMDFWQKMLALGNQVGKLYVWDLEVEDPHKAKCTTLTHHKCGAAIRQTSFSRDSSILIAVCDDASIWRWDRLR", "test": "Temperature shift assay (non-BRD reader domains)", "format": "binding", "conditions": "10µM compound", "protocol": "as §1, §2, §3, §4, §5"}, "TDRD3": {"biological_target": "TDRD3 (Homo sapiens, UniProt Q9H7E2)", "sequence (Q9H7E2 555-615 limits assumed, species assumed)": "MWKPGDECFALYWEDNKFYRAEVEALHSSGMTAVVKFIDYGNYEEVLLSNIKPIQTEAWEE", "test": "Temperature shift assay (non-BRD reader domains)", "format": "binding", "conditions": "10µM compound", "protocol": "as §1, §2, §3, §4, §5"}, "BRD8(1)": {"biological_target": "BRD8(1) (Homo sapiens, UniProt Q9H0E9)", "sequence (Q9H0E9 706-811 limits assumed)": "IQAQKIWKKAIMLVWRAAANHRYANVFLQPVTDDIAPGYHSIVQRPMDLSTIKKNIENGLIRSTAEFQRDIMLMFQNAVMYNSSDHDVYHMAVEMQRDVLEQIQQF", "test": "BROMOscan ligand-binding assay"}}, "data": [{"smiles": "CCC(=O)N1CCOc2c(cc(-c3ccc(OC)c(OC)c3)cc2OCC2CCCN(C)C2)C1", "note": "(stereo not drawn) [I-CBP112]", "values": [{"measurement": "Kd", "setting": "BRD4(1,2)", "result": 11, "unit": "µM"}, {"measurement": "Temperature shift", "setting": "CK2A1", "result": -1.9, "unit": "Kelvin"}, {"measurement": "Temperature shift", "setting": "CAMK1G", "result": -0.2, "unit": "Kelvin"}, {"measurement": "Temperature shift", "setting": "RPS6KA1", "result": 0.1, "unit": "Kelvin"}, {"measurement": "Temperature shift", "setting": "DAPK3", "result": 0.0, "unit": "Kelvin"}, {"measurement": "Temperature shift", "setting": "AAK1", "result": -0.7, "unit": "Kelvin"}, {"measurement": "Temperature shift", "setting": "PIM1", "result": -0.1, "unit": "Kelvin"}, {"measurement": "Temperature shift", "setting": "CSNK1D", "result": 0.5, "unit": "Kelvin"}, {"measurement": "Temperature shift", "setting": "AURKB", "result": 0.3, "unit": "Kelvin"}, {"measurement": "Temperature shift", "setting": "MAPK1", "result": 0.2, "unit": "Kelvin"}, {"measurement": "Temperature shift", "setting": "TTK", "result": 0.0, "unit": "Kelvin"}, {"measurement": "Temperature shift", "setting": "MAPK8", "result": 0.3, "unit": "Kelvin"}, {"measurement": "Temperature shift", "setting": "CASK", "result": 0.0, "unit": "Kelvin"}, {"measurement": "Temperature shift", "setting": "BMX", "result": -0.1, "unit": "Kelvin"}, {"measurement": "Tm (C) 10µM, temperature shift", "setting": "WDR5", "result": -0.2, "unit": "Kelvin"}, {"measurement": "Tm (C) 10µM, temperature shift", "setting": "UHRF1", "result": 0.0, "unit": "Kelvin"}, {"measurement": "Tm (C) 10µM, temperature shift", "setting": "53BP1", "result": 0.3, "unit": "Kelvin"}, {"measurement": "Tm (C) 10µM, temperature shift", "setting": "RBBP1", "result": -0.1, "unit": "Kelvin"}, {"measurement": "Tm (C) 10µM, temperature shift", "setting": "SND1", "result": -0.7, "unit": "Kelvin"}, {"measurement": "Tm (C) 10µM, temperature shift", "setting": "BRPF3", "result": 0.0, "unit": "Kelvin"}, {"measurement": "Tm (C) 10µM, temperature shift", "setting": "EED", "result": -0.5, "unit": "Kelvin"}, {"measurement": "Tm (C) 10µM, temperature shift", "setting": "TDRD3", "result": -0.6, "unit": "Kelvin"}, {"measurement": "Kd", "setting": "BRD8(1); KD (BROMOscan), sheet prints no unit (nM)", "result": "> 30000", "unit": "nM"}, {"measurement": "Kd", "setting": "BRD8(1); KD, BROMOscan Gene Symbol BRD8(1)", "result": "> 100000", "unit": "nM"}]}]}
